Assay results as given in patent US4923878A, “Quinolizine sulfonamides used against certain neoplastic disease states” (Merck & Co., Inc., priority 1988, dated 1990).

Assays:
SN-12KI = assay: MTT-microculture tetrazolium assay, growth inhibition of renal SN-12KI cells; type: cell-based; details: Homo sapiens, 144 h; Renal cell line SN-12KI; 6 days at 37° C.; 0.5% DMSO
Source text: (§1) Tests carried out in accordance with the procedures described in Cancer Research 48, 589-601, February 1988, Feasibility of Drug Screening with Panels of Human Tumor Cell Lines Using a Microculture Tetrazolium Assay--Shoemaker et al., and Cancer Research 48, 4827-4833, September 1988, Evaluation of a Soluble Tetrazolium/Formazan Assay for Cell Growth and Drug Sensitivity in Culture using Human and other Tumor Cell Lines--Shoemaker et al. A brief description of this procedure follows. For further details refer to the above identified articles.
(§2) The procedure was carried out on cell lines from various disease types. Cell lines were maintained as stocks in RPMI 1640 (Quality Biological, Gaithersburg, Md.) supplemented with 10% fetal bovine serum (Sterile Systems, Logon, UT) and 2mM L-glutamine (Central Medium Laboratory, NCI FCRF). Cell cultures were passaged once or twice weekly using trypsin-EDTA(Central Medium Laboratory, NCI-FCRF) to detach the cells from their culture flasks. […]
(§3) Cellular growth in the presence or absence of the test compound was determined using the MTT-microculture tetrazolium assay. In the MTT assay rapidly growing cells are harvested, counted and inoculated at the appropriate concentrations (100-μl volume) into 96-well microtiter plates using a multichannel pipet. […]

A498 = assay: MTT-microculture tetrazolium assay, growth inhibition of renal A498 cells; type: cell-based; details: Homo sapiens, 144 h; Renal cell line A498; 6 days at 37° C.; 0.5% DMSO
Source text: as §1, §2, §3

A704 = assay: MTT-microculture tetrazolium assay, growth inhibition of renal A704 cells; type: cell-based; details: Homo sapiens, 144 h; Renal cell line A704; 6 days at 37° C.; 0.5% DMSO
Source text: as §1, §2, §3

[1] = system: cell lines derived from renal carcinomas; assay: MTT-microculture tetrazolium assay, growth inhibition of cell lines derived from renal carcinomas; type: cell-based, human; details: at the indicated concentrations; 6 days at 37° C.
Source text: as §1, §2, §3

## CS(=O)(=O)NCCN[C@@H]1CCN2CCc3c(oc4ccccc34)[C@@H]2C1 (relative stereo) [(2RS,12bSR)-N-[2-(1,3,4,6,7,12b-hexahydro-2H-benzo[b]furo[2,3-a]quinolizin-2-yl)]-N-2-((methanesulfonyl)ethyl)amine]
SN-12KI
  IC50: 6.3 µM
A498
  IC50: 1.6 µM
A704
  IC50: 0.16 µM
[1]
  growth inhibition of cell lines derived from renal carcinomas (in words): selectively inhibit the growth of cell lines derived from renal carcinomas
